The results in this text go back to ChEMBL document CHEMBL1201862, “PubChem BioAssay data set” (2004).

Some test systems named below: OVCAR-8; MOLT-4; A549; DU-145; MDA-MB-435; OVCAR-3; UO-31; NCI-H460; BT-549; NCI-H23; COLO 205; 786-0; Hs-578T; SK-MEL-2; NCI-H522; U-251; Malme-3M; OVCAR-4; TK-10; CCRF-CEM.
Common to all, as to assay: inhibition of tumour cell growth, NCI panel, 48 h

The structures appear in SMILES notation.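 These data come from cells grown in 96-well plates and exposed to compound for 48 hours at five concentrations. At the GI50, growth is halved.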 The source made the active and inactive calls. Rule as the data show it: active = GI50 up to about 1.1 µM and inactive = higher.

With `CCOc1ccc2nc3nc(O)nc(C)c3c(NCCCN(CC)CC)c2c1`, the GI50 with OVCAR-8, in the assay with MOLT-4, in the assay on A549, with DU-145, in the assay on MDA-MB-435 and in the assay with OVCAR-3 was > 100 µM (inactive) each time. Besides, the GI50 in the assay with UO-31, in the assay with NCI-H460, in the assay on BT-549, with NCI-H23, in the assay with COLO 205 and in the assay on 786-0 was > 100 µM (inactive) in each case. The GI50 in the assay on Hs-578T, with SK-MEL-2, in the assay with NCI-H522, in the assay on U-251, in the assay with Malme-3M and with OVCAR-4 was > 100 µM (inactive) in each case. In addition, the GI50 with TK-10 and with CCRF-CEM was > 100 µM (inactive) throughout.

For `Cc1ccc(S(=O)(=O)OC2CN3CCC2CC3)cc1` (stereo not given), the GI50 with OVCAR-8, in the assay on MOLT-4, in the assay with A549, in the assay on DU-145, with MDA-MB-435 and in the assay with OVCAR-3 was > 100 µM (inactive) in each case. For the same molecule, the GI50 with UO-31, in the assay with NCI-H460, in the assay with BT-549, in the assay on NCI-H23, in the assay on COLO 205 and with 786-0 was > 100 µM (inactive) throughout. The GI50 with Hs-578T, in the assay on SK-MEL-2, with NCI-H522, in the assay with U-251, in the assay with Malme-3M and with OVCAR-4 was > 100 µM (inactive) throughout. Moreover, the GI50 in the assay on TK-10 is > 100 µM (inactive); with CCRF-CEM, 15.5 µM (inactive).

`CCCS(=O)(=O)Nc1ccc(Nc2c3ccccc3nc3ccccc23)c(OC)c1`: the GI50 in the assay with OVCAR-8 was 1.2 µM (inactive); in the assay on MOLT-4 it was 0.0211 µM (active); with A549 it was 0.43 µM (active); in the assay on DU-145 it was 0.271 µM (active); in the assay on MDA-MB-435, 5.28 µM (inactive); with OVCAR-3, 2.3 µM (inactive). In addition, the GI50 in the assay on UO-31 was 1.08 µM (active); in the assay with NCI-H460, 0.0362 µM (active); in the assay with BT-549, 2.37 µM (inactive); in the assay on NCI-H23, 0.421 µM (active); in the assay on COLO 205 it was 2.16 µM (inactive); in the assay with 786-0 it was 0.807 µM (active). Further, the GI50 in the assay with Hs-578T was 3.16 µM (inactive); with SK-MEL-2 it was 2.86 µM (inactive); in the assay with NCI-H522 it was 0.38 µM (active); in the assay on U-251 it was 0.641 µM (active); in the assay on Malme-3M it was 1.04 µM (active); in the assay with OVCAR-4, 7.62 µM (inactive). Also, the figures for the GI50 with TK-10 and in the assay on CCRF-CEM were 3.78 µM (inactive) and 0.0475 µM (active), respectively.

With `COc1ccc(N[S+]([O-])CCCc2ccccc2)cc1` (stereo not given), the GI50 is > 100 µM (inactive) in the assay on OVCAR-8; > 100 µM (inactive) in the assay with MOLT-4; 65 µM (inactive) with A549; > 100 µM (inactive) in the assay with DU-145; > 100 µM (inactive) in the assay with MDA-MB-435; 88.7 µM (inactive) with OVCAR-3. Moreover, the GI50 in the assay with UO-31 was 38.7 µM (inactive); with NCI-H460, > 100 µM (inactive); in the assay on BT-549, 4.16 µM (inactive); in the assay with NCI-H23, > 100 µM (inactive); in the assay on COLO 205, > 100 µM (inactive); in the assay with 786-0, > 100 µM (inactive). In addition, the GI50 was > 100 µM (inactive) in the assay on Hs-578T; > 100 µM (inactive) with SK-MEL-2; 24.1 µM (inactive) in the assay on NCI-H522; 72.3 µM (inactive) in the assay on U-251; > 100 µM (inactive) in the assay with Malme-3M; > 100 µM (inactive) in the assay on OVCAR-4. Besides, the GI50 in the assay on TK-10 and in the assay on CCRF-CEM was > 100 µM (inactive) each time.

For `N#Cc1cnn2c1n[n+]([O-])c1ccc(Cl)cc12`, the GI50 in the assay on OVCAR-8 is 11.5 µM (inactive); in the assay on MOLT-4 it was 7.31 µM (inactive); in the assay with A549, 14.1 µM (inactive); in the assay with DU-145, 14.9 µM (inactive); with MDA-MB-435, 11.9 µM (inactive); with OVCAR-3, 2.96 µM (inactive). For the same molecule, the GI50 with UO-31 is 13.5 µM (inactive); in the assay with NCI-H460 it was 11.4 µM (inactive); with BT-549 it was 12.8 µM (inactive); in the assay on NCI-H23 it was 5.7 µM (inactive); in the assay on COLO 205 it was 16.6 µM (inactive); in the assay with 786-0 it was 27.4 µM (inactive). For the same molecule, the GI50 in the assay with Hs-578T is 5.3 µM (inactive); in the assay on SK-MEL-2 it was 7.31 µM (inactive); in the assay with NCI-H522, 1.75 µM (inactive); in the assay on U-251, 17 µM (inactive); in the assay with Malme-3M, 7.69 µM (inactive); with OVCAR-4, 2.23 µM (inactive). Besides, the GI50 in the assay with TK-10 is 57.8 µM (inactive); in the assay on CCRF-CEM it was 1.75 µM (inactive).

As for `Cc1ccc(S(=O)(=O)n2cc(C#N)c(C#N)c2)cc1`, the GI50 was 31.8 µM (inactive) in the assay with OVCAR-8; 31.8 µM (inactive) with MOLT-4; 24.7 µM (inactive) in the assay on A549; 31.4 µM (inactive) in the assay on DU-145; 19.8 µM (inactive) with MDA-MB-435; 22.5 µM (inactive) in the assay on OVCAR-3. Besides, the GI50 in the assay on UO-31 is 26.9 µM (inactive); in the assay with NCI-H460, 36.5 µM (inactive); in the assay with BT-549, 20.6 µM (inactive); with NCI-H23, 29.8 µM (inactive); with COLO 205 it was 28.6 µM (inactive); in the assay on 786-0, 36.2 µM (inactive). The GI50 with Hs-578T was 24.7 µM (inactive); in the assay with SK-MEL-2, 24.3 µM (inactive); in the assay with NCI-H522, 15.4 µM (inactive); in the assay with U-251 it was 13.3 µM (inactive); in the assay on Malme-3M, 15.6 µM (inactive); in the assay on OVCAR-4, 74 µM (inactive). Also, the GI50 in the assay on TK-10 was 38.3 µM (inactive); in the assay with CCRF-CEM, 30.2 µM (inactive).

On to `O=[N+]([O-])/C(C(Cl)=C(Cl)Cl)=C(/Sc1ccccc1)N1CCOCC1`, for which the GI50 with OVCAR-8 was 1.89 µM (inactive); with MOLT-4, 2 µM (inactive); in the assay on A549, 18.6 µM (inactive); with DU-145, 12.6 µM (inactive); with MDA-MB-435 it was 2.59 µM (inactive); in the assay with OVCAR-3, 2.69 µM (inactive). Also, the GI50 in the assay on UO-31 is 4.67 µM (inactive); in the assay on NCI-H460, 5.05 µM (inactive); in the assay on BT-549 it was 4.76 µM (inactive); in the assay with NCI-H23 it was 11.3 µM (inactive); in the assay with COLO 205, 3.88 µM (inactive); in the assay on 786-0, 2.28 µM (inactive). Further, the GI50 in the assay with Hs-578T was 15.6 µM (inactive); with SK-MEL-2, 5.14 µM (inactive); in the assay on NCI-H522, 4.31 µM (inactive); in the assay on U-251, 10.5 µM (inactive); with Malme-3M, 5.13 µM (inactive); with OVCAR-4 it was 11.6 µM (inactive). The values for the GI50 with TK-10 and in the assay on CCRF-CEM were 6.68 µM (inactive) and 1.83 µM (inactive), respectively.

On to `Clc1cc2nn(C3CCCCO3)nc2cc1Cl` (stereo not given), for which the GI50 in the assay with OVCAR-8, in the assay with MOLT-4, with A549, in the assay with DU-145, with MDA-MB-435 and with OVCAR-3 was > 100 µM (inactive) each time. Further, the GI50 with UO-31, with NCI-H460, with BT-549, with NCI-H23, with COLO 205 and in the assay with 786-0 was > 100 µM (inactive) in each case. Moreover, the GI50 with Hs-578T, in the assay on SK-MEL-2, in the assay with NCI-H522, in the assay with U-251, with Malme-3M and with OVCAR-4 was > 100 µM (inactive) in each case. Moreover, the GI50 with TK-10 and in the assay with CCRF-CEM was > 100 µM (inactive) throughout.

On to `CCOC(=O)C(NC(=O)c1ccccc1)(Nc1ccc(S(=O)(=O)Nc2ccc(OC)nn2)cc1)C(F)(F)F` (stereo not given), for which the GI50 with OVCAR-8, in the assay with MOLT-4, in the assay with A549, with DU-145, with MDA-MB-435 and in the assay with OVCAR-3 was > 100 µM (inactive) each time. Further, the GI50 with UO-31, in the assay on NCI-H460, with BT-549, in the assay with NCI-H23, in the assay with COLO 205 and in the assay with 786-0 was > 100 µM (inactive) in each case. The GI50 in the assay with Hs-578T, with SK-MEL-2, with NCI-H522, in the assay on U-251, in the assay on Malme-3M and with OVCAR-4 was > 100 µM (inactive) throughout. For the same molecule, the GI50 in the assay on TK-10 and in the assay with CCRF-CEM was > 100 µM (inactive) throughout.

`CC1=NC(C)(COC(=O)C2(C)NC(C)(CO)CO2)COC1=O` (stereo not given): the GI50 in the assay on OVCAR-8, in the assay with MOLT-4, with A549, in the assay with DU-145, in the assay with MDA-MB-435 and in the assay with OVCAR-3 was > 100 µM (inactive) in each case. In addition, the GI50 in the assay on UO-31, in the assay with NCI-H460, in the assay with BT-549, in the assay on NCI-H23, in the assay on COLO 205 and with 786-0 was > 100 µM (inactive) each time. Besides, the GI50 in the assay with Hs-578T, in the assay with SK-MEL-2, with NCI-H522, with U-251, with Malme-3M and in the assay with OVCAR-4 was > 100 µM (inactive) throughout. The GI50 in the assay on TK-10 was > 75 µM (inactive); in the assay with CCRF-CEM it was > 100 µM (inactive).
